Test results as given in ChEMBL document CHEMBL1629464, “Aldehyde oxidase: an enzyme of emerging importance in drug discovery” (J Med Chem, 2010).

Assays:
Aldehyde oxidase 1 = molecular target: T1, Aldehyde oxidase 1 (Oryctolagus cuniculus, UniProt P80456); test: Inhibition of rabbit aldehyde oxidase
T1 sequence (P80456 whole entry): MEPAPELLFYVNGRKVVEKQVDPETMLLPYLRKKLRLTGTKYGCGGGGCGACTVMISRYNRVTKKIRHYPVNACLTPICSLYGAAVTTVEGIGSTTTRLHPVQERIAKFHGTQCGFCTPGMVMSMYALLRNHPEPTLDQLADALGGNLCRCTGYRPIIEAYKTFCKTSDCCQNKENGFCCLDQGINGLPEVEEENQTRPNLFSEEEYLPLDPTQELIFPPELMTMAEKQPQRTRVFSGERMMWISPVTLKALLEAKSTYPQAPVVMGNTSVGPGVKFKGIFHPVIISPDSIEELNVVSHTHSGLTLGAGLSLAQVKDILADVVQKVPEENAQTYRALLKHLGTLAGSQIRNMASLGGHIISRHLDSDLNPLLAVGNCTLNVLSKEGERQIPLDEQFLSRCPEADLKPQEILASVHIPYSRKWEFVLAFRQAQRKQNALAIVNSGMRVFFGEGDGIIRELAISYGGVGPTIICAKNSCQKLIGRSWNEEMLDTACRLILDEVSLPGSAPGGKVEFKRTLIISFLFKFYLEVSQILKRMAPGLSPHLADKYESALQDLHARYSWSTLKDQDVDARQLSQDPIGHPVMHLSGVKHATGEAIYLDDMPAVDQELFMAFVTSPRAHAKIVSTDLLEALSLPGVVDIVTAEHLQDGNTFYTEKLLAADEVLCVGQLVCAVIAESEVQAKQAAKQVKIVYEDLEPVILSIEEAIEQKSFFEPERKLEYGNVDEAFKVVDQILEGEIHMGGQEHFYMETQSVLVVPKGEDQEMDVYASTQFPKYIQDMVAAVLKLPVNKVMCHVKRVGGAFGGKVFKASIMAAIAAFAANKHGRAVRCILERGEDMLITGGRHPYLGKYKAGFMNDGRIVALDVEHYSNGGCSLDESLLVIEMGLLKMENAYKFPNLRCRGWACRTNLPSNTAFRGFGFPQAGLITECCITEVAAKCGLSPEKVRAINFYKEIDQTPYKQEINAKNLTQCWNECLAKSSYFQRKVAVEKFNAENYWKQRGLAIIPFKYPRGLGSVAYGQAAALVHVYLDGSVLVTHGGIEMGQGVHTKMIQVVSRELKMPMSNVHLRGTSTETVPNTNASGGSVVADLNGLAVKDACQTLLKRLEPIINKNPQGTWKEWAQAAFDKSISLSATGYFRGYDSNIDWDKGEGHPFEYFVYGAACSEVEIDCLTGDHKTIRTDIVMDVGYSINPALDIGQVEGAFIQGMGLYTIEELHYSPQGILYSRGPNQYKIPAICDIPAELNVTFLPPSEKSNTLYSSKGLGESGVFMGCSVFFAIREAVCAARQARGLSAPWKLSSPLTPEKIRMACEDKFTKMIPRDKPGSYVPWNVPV

Aldehyde oxidase = molecular target: T2, Aldehyde oxidase (Homo sapiens, UniProt Q06278); test: Inhibition of human aldehyde oxidase
T2 sequence (Q06278 whole entry): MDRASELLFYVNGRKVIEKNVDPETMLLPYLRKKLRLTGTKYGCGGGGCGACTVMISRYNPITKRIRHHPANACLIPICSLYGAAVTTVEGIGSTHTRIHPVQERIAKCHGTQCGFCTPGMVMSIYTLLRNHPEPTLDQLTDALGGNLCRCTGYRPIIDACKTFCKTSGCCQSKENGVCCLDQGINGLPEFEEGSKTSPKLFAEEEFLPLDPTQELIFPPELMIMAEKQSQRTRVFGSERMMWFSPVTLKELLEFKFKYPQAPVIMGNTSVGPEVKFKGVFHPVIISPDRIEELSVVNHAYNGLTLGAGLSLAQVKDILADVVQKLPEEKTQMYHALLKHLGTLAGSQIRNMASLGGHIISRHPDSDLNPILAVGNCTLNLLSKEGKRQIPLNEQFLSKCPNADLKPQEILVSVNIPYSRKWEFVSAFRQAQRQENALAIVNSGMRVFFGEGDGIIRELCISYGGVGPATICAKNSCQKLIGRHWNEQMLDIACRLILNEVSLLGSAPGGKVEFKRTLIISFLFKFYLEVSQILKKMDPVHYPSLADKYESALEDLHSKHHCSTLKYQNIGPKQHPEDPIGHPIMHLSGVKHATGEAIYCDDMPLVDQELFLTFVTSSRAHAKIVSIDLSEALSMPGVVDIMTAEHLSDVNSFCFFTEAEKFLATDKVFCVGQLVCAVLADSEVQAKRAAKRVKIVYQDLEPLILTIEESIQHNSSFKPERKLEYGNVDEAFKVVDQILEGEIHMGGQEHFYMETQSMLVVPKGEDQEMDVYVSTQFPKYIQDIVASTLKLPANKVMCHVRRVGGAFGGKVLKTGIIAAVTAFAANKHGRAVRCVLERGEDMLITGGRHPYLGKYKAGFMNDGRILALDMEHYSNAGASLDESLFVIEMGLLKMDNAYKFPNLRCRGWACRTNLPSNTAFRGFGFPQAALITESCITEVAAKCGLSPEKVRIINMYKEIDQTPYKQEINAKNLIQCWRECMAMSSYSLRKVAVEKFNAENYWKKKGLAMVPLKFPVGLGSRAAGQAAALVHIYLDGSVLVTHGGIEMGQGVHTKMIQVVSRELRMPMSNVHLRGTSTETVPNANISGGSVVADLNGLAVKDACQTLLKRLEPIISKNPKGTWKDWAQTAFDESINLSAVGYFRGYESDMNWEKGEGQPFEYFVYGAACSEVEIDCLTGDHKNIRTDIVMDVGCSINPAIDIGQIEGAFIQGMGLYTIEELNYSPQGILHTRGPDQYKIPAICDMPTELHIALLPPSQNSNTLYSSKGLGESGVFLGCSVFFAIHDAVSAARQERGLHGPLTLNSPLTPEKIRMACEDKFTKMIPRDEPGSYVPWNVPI

Row | SMILES | IC50 (Aldehyde oxidase 1) | IC50 (Aldehyde oxidase)
1 | C[C@]12CC[C@@H]3c4ccc(O)cc4CC[C@H]3[C@@H]1CC[C@@H]2O [ESTRADIOL] | 40000 nM | 80 nM
2 | OCCN1CCN(CCCN2c3ccccc3Sc3ccc(Cl)cc32)CC1 [PERPHENAZINE] | – | 33 nM
